System: human induced pluripotent stem cells
Assay: Induction of oligodendrocytes from iPSC in OPC mature culture medium with or without puerarin (immunofluorescence, cell count)
Type: cell-based
Experimental: Cleaned with DPBS three times, 3 minutes per time, and fixed with 4% PFA at room temperature for 40 minutes. Cleaned with DPBS three times, 3 minutes per time. 0.5% TritonX-100, perforation for 15 minutes. 5% BSA+0.15% TritonX-100, blocked at room temperature for 1 hour. Preparation of PBST: DPBS+1% BSA+0.15% TritonX-100. The primary antibody was added, stay overnight at 4 degrees. Recycled the primary antibody solution and cleaned it with PB ST three times for 10 minutes each time. The secondary antibody was added with a ratio of 1:500, stayed overnight at 4 degrees, away from light. Cleaned with PB ST three times for 10 minutes each time. 5 μg/ml DAPI for 2-3 minutes, away from light. Cleaned with DPBS and added 90% glycerol.
OPC mature medium—containing puerarin: 95% DMEM/F-12 medium, 1% non-essential amino acid, 1% GlutaMAX-I, 0.1 mM 2-mercaptoethanol, 1% N2 supplement, 2% B27 supplement, 10 ng/mL PDGF-AA, 10 ng/mL IGF-1, 5 ng/mL HGF, 10 ng/mL NT3, 60 ng/mL T3, 100 ng/mL Biotin, 1 μM cAMP, 25 μM Puerarin, 25 μg/ml insulin. […]
On the 37th day of cultivation, the percentage of oligodendrocytes in all cells was quantitatively counted, as shown in FIG. 3.

Compound: O=c1c(-c2ccc(O)cc2)coc2c([C@@H]3O[C@H](CO)[C@@H](O)[C@H](O)[C@H]3O)c(O)ccc12 [puerarin, Puerarin]
- percentage of oligodendrocytes in all cells (day 37 of cultivation, 25 μM puerarin in OPC mature culture medium, control medium without puerarin about 21%): about 36%
- increase of the number of oligodendrocytes (later stage of induction of iPSC to oligodendrocytes): 30%
